Test results: ChEMBL document CHEMBL1201862, “PubChem BioAssay data set” (2004)
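Test compounds were applied to cells in 96-well plates for 48 hours at 5 doses. GI50: concentration for 50% inhibition of growth.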 Calls of active or inactive are those of the source. No stated cut-off is given here; in the data, active = GI50 up to about 1.1 µM and inactive = higher.

Legend:
Test in all cases: NCI tumour cell line growth inhibition, 48 h
[1] = system: SNB-19
[2] = system: LOX IMVI
[3] = system: KM12
[4] = system: COLO 205
[5] = system: HOP-62
[6] = system: UO-31
[7] = system: K562
[8] = system: OVCAR-3
[9] = system: 786-0
[10] = system: SF-295
[11] = system: SNB-75
[12] = system: NCI-H23
[13] = system: LXFL 529
[14] = system: RXF 393
[15] = system: HL-60
[16] = system: EKVX
[17] = system: SN12C
[18] = system: SK-MEL-5

Measured: GI50

Clc1ccc2c(c1)C1C(CO2)C(c2ccccc2)=NN1c1ccccc1 (configuration not stated)
inactive: [1] 34.5 µM | [2] > 10 µM | [3] 31.6 µM | [4] 71.3 µM | [5] 37 µM | [6] 15 µM | [7] 26.2 µM | [8] 23 µM | [9] 24.9 µM | [10] 35.6 µM | [11] 20.1 µM | [12] 33.7 µM | [13] 29.6 µM | [14] 24.2 µM | [15] 17.3 µM | [16] 11.8 µM

C=CCCC(O)c1cc(C)c(O)c(C)c1 (configuration not stated)
inactive: [1] > 100 µM | [2] > 100 µM | [17] > 100 µM | [3] > 100 µM | [4] > 100 µM | [5] > 100 µM | [6] > 100 µM | [7] > 100 µM | [8] > 100 µM | [9] > 100 µM | [10] > 100 µM | [11] 60.1 µM | [12] > 100 µM | [13] > 100 µM | [14] 53.3 µM | [15] > 100 µM | [16] > 100 µM | [18] > 100 µM

CCOC(=O)C1(C)CCC(C(=O)OC)C1=O (configuration not stated)
inactive: [1] > 100 µM | [2] 18.1 µM | [17] 42.9 µM | [3] > 100 µM | [4] 44.1 µM | [5] > 100 µM | [6] > 100 µM | [7] 32.8 µM | [8] > 100 µM | [9] > 100 µM | [10] > 100 µM | [11] > 100 µM | [12] > 100 µM | [13] > 100 µM | [14] > 100 µM | [15] 53.1 µM | [16] > 100 µM | [18] > 100 µM

C[C@]12CC=CC(=O)[C@@]1(C)CCC(=O)C2
inactive: [1] > 100 µM | [17] > 100 µM | [3] > 100 µM | [5] > 100 µM | [6] > 100 µM | [7] > 100 µM | [8] > 100 µM | [9] > 100 µM | [10] > 100 µM | [11] > 100 µM | [12] > 100 µM | [13] > 100 µM | [14] > 100 µM | [15] > 100 µM | [16] > 100 µM | [18] > 100 µM

O=C(CCC(=O)Nc1ccc(Cl)c(Cl)c1)CC(=O)c1ccc(F)cc1
inactive: [1] > 100 µM | [2] > 100 µM | [17] > 100 µM | [3] > 100 µM | [4] > 100 µM | [5] > 100 µM | [6] > 100 µM | [7] > 100 µM | [8] > 100 µM | [9] > 100 µM | [10] > 100 µM | [12] > 100 µM | [13] > 100 µM | [14] > 100 µM | [15] > 100 µM | [16] > 100 µM | [18] > 100 µM

O=C1CCC(O)=C1O
inactive: [1] > 100 µM | [2] > 100 µM | [17] > 100 µM | [3] > 100 µM | [4] > 100 µM | [5] > 100 µM | [7] > 100 µM | [8] > 100 µM | [9] > 100 µM | [10] > 100 µM | [11] > 100 µM | [12] > 100 µM | [13] > 100 µM | [14] > 100 µM | [15] > 100 µM | [16] > 100 µM | [18] > 100 µM

O=C1CCC(=O)N1Cc1ccccc1/N=[N+](\[O-])c1ccccc1CN1C(=O)CCC1=O
inactive: [1] > 100 µM | [2] > 100 µM | [17] > 100 µM | [3] > 100 µM | [4] > 100 µM | [5] > 100 µM | [6] > 100 µM | [7] > 100 µM | [8] > 100 µM | [9] > 100 µM | [10] > 100 µM | [11] 10.2 µM | [12] > 100 µM | [13] > 100 µM | [14] > 100 µM | [15] > 100 µM | [16] > 100 µM | [18] > 100 µM

Brc1ccc(-c2nnc(-c3nn(-c4ccccc4)c4nc5ccccc5nc34)o2)cc1
inactive: [1] > 100 µM | [2] > 100 µM | [17] > 100 µM | [3] > 100 µM | [4] > 100 µM | [5] > 100 µM | [6] > 100 µM | [7] 27 µM | [8] 95.7 µM | [9] > 100 µM | [10] > 100 µM | [11] > 100 µM | [12] > 100 µM | [13] 31.5 µM | [14] > 100 µM | [15] 27.3 µM | [16] > 100 µM | [18] 21.3 µM

COc1cc2c(cc1O)CC13CCC(=O)N1CCc1cc(OC)c(O)c-2c13 (configuration not stated)
inactive: [1] > 68.1 µM | [2] > 68.1 µM | [17] > 68.1 µM | [4] > 68.1 µM | [5] > 68.1 µM | [6] > 68.1 µM | [7] > 68.1 µM | [8] > 68.1 µM | [9] > 68.1 µM | [10] > 68.1 µM | [11] > 68.1 µM | [12] > 68.1 µM | [13] > 68.1 µM | [14] > 68.1 µM | [15] > 68.1 µM | [16] > 68.1 µM | [18] > 68.1 µM

COc1ccc(/C=C/CO)cc1OC
inactive: [1] > 100 µM | [17] > 100 µM | [3] > 100 µM | [4] > 100 µM | [6] > 100 µM | [7] > 100 µM | [8] > 100 µM | [9] > 100 µM | [10] > 100 µM | [11] > 100 µM | [12] > 100 µM | [13] > 100 µM | [14] > 100 µM | [16] > 100 µM | [18] > 100 µM

CC1(C)NC(=O)N(CCCCCCN2C(=O)NC(C)(C)C2=O)C1=O
inactive: [1] 97.9 µM | [2] > 100 µM | [17] > 100 µM | [3] > 100 µM | [4] > 100 µM | [6] > 100 µM | [7] > 100 µM | [9] > 100 µM | [11] > 100 µM | [12] > 100 µM | [13] > 100 µM | [14] > 100 µM | [16] > 100 µM

C=C(C)C1CC2C(C)=C(OC(C)=O)C1n1c(=O)c3cc4ccccc4cc3c(=O)n12 (configuration not stated)
inactive: [1] > 100 µM | [2] > 84.3 µM | [17] 98.2 µM | [3] > 82 µM | [4] > 100 µM | [5] > 100 µM | [6] > 83 µM | [7] 46.2 µM | [8] 46.9 µM | [9] > 95.5 µM | [10] > 71.6 µM | [11] 42 µM | [12] 50.1 µM | [13] 69.7 µM | [14] 24.2 µM | [15] 1.41 µM | [16] 64.1 µM | [18] 87.3 µM

O=c1/c(=C/c2ccc3c(c2)OCO3)sc2nnc(-c3ccco3)n12
inactive: [1] > 100 µM | [2] > 100 µM | [17] > 100 µM | [3] > 100 µM | [4] > 100 µM | [5] > 100 µM | [6] > 100 µM | [7] > 100 µM | [8] > 100 µM | [9] > 100 µM | [10] 82 µM | [11] 28.2 µM | [12] > 100 µM | [13] > 100 µM | [14] > 100 µM | [15] > 100 µM | [16] > 100 µM | [18] > 100 µM

Cc1nnc(N/N=C(/C(=O)C(C#N)c2ccc(Cl)cc2)C(C#N)c2ccc(Cl)cc2)n1N (configuration not stated)
inactive: [1] 14.6 µM | [2] 18.6 µM | [17] 19.3 µM | [3] 18.7 µM | [4] 17.7 µM | [5] 16.6 µM | [6] 17.7 µM | [7] 17.5 µM | [8] 21.5 µM | [9] 17.4 µM | [10] 15.7 µM | [11] 16.4 µM | [12] 17.8 µM | [13] 13.4 µM | [14] 17.7 µM | [15] 22.5 µM | [16] > 10 µM | [18] 16 µM

CCCCCCCCCC1CC(=O)Oc2cccc(O)c21 (configuration not stated)
inactive: [1] 3.7 µM | [2] 14 µM | [17] 6.85 µM | [3] 12.5 µM | [4] 16.4 µM | [5] 34.3 µM | [6] 19.5 µM | [7] 24 µM | [8] 16.3 µM | [9] 10.1 µM | [10] 11.6 µM | [11] 40 µM | [12] 3.31 µM | [13] 24.4 µM | [14] 23.8 µM | [15] 27.9 µM | [16] 40.7 µM | [18] 15.2 µM

COc1cc(/C=C/C(=N\NC(=O)c2ccccc2)c2sc(Nc3ccc(Cl)c(Cl)c3)nc2C)ccc1O
inactive: [1] 31.6 µM | [2] 19.7 µM | [17] 33 µM | [3] 30.5 µM | [4] 34 µM | [5] 38.4 µM | [6] 28.8 µM | [7] 25.2 µM | [8] 30.3 µM | [9] 41.2 µM | [10] 33.1 µM | [11] 33.3 µM | [12] 25.7 µM | [13] 31.6 µM | [14] 39.7 µM | [15] 16.1 µM | [16] 29.6 µM
